In patent publication US9045525B2, “Amyloid β-protein-specific production-inhibiting polypeptide” (THE DOSHISHA, priority 2012, dated 2015):
Entries after “also recorded” stand apart in the source; their conditions may differ.

What was measured:
[1] = target: β-secretase against APP (APP-EQ-FLAG) (Homo sapiens, UniProt P05067); experiment: β-Secretase activity inhibition experiment in vitro, APP-EQ-FLAG substrate; type: biochemical; conditions: polypeptide 1, 5, 10, 20, 50, and 100 μM
Experimental: A solution containing the polypeptide having APP (APP-EQ-FLAG: SEQ ID NO: 18) as shown in FIG. 5(A) was prepared in such a manner that its final concentration was 50 nM.
To this solution, 9-7 polypeptide, 6-5 polypeptide, #1 polypeptide, #2 polypeptide, #3 polypeptide, #4 polypeptide, #5 polypeptide, #6 polypeptide, #7 polypeptide, #8 polypeptide, #9 polypeptide, and #10 polypeptide were added in such a manner that each solution had the final concentration of 50 μM, followed by reacting with 50 μL β-secretase (0.02 U/μL) for 4 hours. The reaction temperature was 37° C. As a negative control experiment, DMSO was used in place of the 12 types of polypeptides mentioned above.
After completion of the reaction, each sample was subjected to Western blotting using a monoclonal antibody (82E-1) that specifically recognizes the N terminal of APP-EQ-FLAG as shown in FIG. 5(A). Thereafter, the amount of Aβ33-FLAG protein separated by β-secretase was measured.
An experiment was conducted in the same manner as Experimental Example 4 described above except that S4 and #4 polypeptides were used as the polypeptide and the amounts of these polypeptides added were adjusted so that the final concentrations were 1, 5, 10, 20, 50, and 100 μM.

[2] = system: CHO-K1 cells (7WD10 cells) that stably expressed APP protein; experiment: Aβ protein production inhibition experiment in 7WD10 cells (sAPPβ, βCTF, Aβ); type: cell-based; conditions: polypeptide 25 μM and 50 μM; cells also expressing st6gal
Experimental: (§1) An experiment was conducted wherein #1, #2, and #4 polypeptides were reacted with CHO-K1 cells (7WD10 cells) that stably expressed APP protein and transiently expressed Notch to confirm the production of Aβ protein and cleavage of Notch protein.

[3] = system: sialyltransferase (st6gal), substrate of β-secretase, in 7WD10 cells; experiment: Cleavage of sialyltransferase (st6gal) in 7WD10 cells; type: cell-based; conditions: polypeptide 25 μM and 50 μM
Experimental: An experiment was conducted in the same manner as Experimental Example 6 except that only S4 polypeptide was used as the polypeptide; the S4 polypeptide was added to have the final concentrations of 25 μM and 50 μM; the cell used in this experiment was CHO-K1 cell (7WD10 cell) that expressed APP protein and transiently expressed Notch and sialyltransferase (st6gal), which is the substrate of β-secretase; and confirmation of cleavage by sialyltransferase was conducted in addition to the confirmation of the production of Aβ protein and cleavage of Notch protein.

[4] = system: Notch transiently expressed in CHO-K1 cells (7WD10 cells); experiment: Cleavage of Notch protein (NICD) in 7WD10 cells; type: cell-based; conditions: polypeptide 25 μM and 50 μM; cells also expressing st6gal
Experimental: as §1

[5] = target: γ-secretase against Notch (Mus musculus, UniProt Q01705, V1997L); experiment: γ-Secretase activity inhibition experiment in vitro, Notch-FLAG substrate; type: biochemical; conditions: polypeptide 1, 5, 10, 20, and 50 μM
Experimental: (§2) A polypeptide having βCTF (C99-FLAG: SEQ ID NO: 16) and mouse-derived Notch protein having a FLAG peptide at the C-terminal side (modification of NCBI Accession No. Q01705.2; SEQ ID NO: 17; hereunder referred to as “Notch”) shown in FIG. 2(A) were each made into a solution having a final concentration of 50 nM.
(§3) To these solutions, 9-7 polypeptide, 6-5 polypeptide, #1 polypeptide, #2 polypeptide, #3 polypeptide, and #4 polypeptide were added in such a manner that the final concentrations were 50 μM, followed by reacting with 50 μL of CHAPSO-solubilized membrane fraction (γ-secretase-containing fraction) for 4 hours. The reaction temperature was 37° C. As a negative control experiment, DMSO was used in place of the six types of polypeptides described above.
(§4) Each sample after completion of the reaction was measured in the following manner. As shown in FIG. 2(A), a sample using C99-FLAG was subjected to Western blotting using a monoclonal antibody (82E-1) that specifically recognizes the N terminal of C99-FLAG, and the amount of Aβ40 protein produced by the cleavarage by γ-secretase was measured. In contrast, the reaction sample using Notch-FLAG was subjected to Western blotting using an anti-FLAG monoclonal antibody, and the amount of NICD produced to the separete by γ-secretase was also measured. FIG. 2(B) and FIG. 2(C) show the results.
(§5) An experiment was conducted in the same manner as in Experimental Example 1 described above, except that only #1 polypeptide was used and the amount of #1 polypeptide was selected so that the final concentrations were 0.5, 1, 5, 10, 20, and 50 μM.
(§6) An experiment was conducted in the same manner as in Experimental Example 1 described above, except that S4 polypeptide was used as the polypeptide, and each addition amount was set in such a manner that the final concentrations were 1, 5, 10, 20, and 50 μM. In this Experimental Example, #4 polypeptide was added in such a manner that the final result was 50 μM.

[6] = target: γ-secretase against βCTF (C99-FLAG) (Homo sapiens, UniProt P05067); experiment: γ-Secretase activity inhibition experiment in vitro, C99-FLAG substrate; type: biochemical; conditions: polypeptide 1, 5, 10, 20, and 50 μM
Experimental: as §2, §3, §4, §5, §6

Chain of β-secretase against APP (APP-EQ-FLAG) (P05067 with tags, fused parts or gaps): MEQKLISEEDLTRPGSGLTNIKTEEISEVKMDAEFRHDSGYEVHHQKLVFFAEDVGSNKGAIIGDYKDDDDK
Chain of γ-secretase against βCTF (C99-FLAG) (P05067 with tags, fused parts or gaps): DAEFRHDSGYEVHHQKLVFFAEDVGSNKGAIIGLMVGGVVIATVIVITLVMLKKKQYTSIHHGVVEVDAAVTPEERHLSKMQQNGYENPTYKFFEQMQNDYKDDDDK
Chain of γ-secretase against Notch (Q01705 with tags, fused parts or gaps V1997L): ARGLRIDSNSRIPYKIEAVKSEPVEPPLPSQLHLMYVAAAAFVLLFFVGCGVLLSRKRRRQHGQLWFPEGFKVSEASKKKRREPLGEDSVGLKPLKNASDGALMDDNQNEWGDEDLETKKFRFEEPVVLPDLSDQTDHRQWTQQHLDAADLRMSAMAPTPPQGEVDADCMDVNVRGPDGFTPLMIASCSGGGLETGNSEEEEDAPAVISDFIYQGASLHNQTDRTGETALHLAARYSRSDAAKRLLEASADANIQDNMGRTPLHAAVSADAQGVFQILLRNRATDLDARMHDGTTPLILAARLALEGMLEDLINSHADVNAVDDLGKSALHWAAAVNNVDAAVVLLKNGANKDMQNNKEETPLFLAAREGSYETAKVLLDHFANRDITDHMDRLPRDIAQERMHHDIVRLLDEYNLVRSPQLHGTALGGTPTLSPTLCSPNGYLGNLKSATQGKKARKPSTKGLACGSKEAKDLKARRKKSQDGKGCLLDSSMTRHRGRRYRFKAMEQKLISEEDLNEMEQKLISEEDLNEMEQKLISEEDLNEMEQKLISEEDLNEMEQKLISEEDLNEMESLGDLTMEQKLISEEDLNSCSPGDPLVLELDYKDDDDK

FGBTWDYWVYR [S4]
cleavage activity of β-secretase against APP [1]: inhibited the cleavage activity of β-secretase against APP, although inferior to #4 polypeptide; also recorded: inhibited the cleavage activity of β-secretase against APP in a concentration-dependent manner
Aβ protein (intracellular Aβ) in the cell lysate [2]: decreased
amount of Aβ protein (released Aβ) in the cell culture medium [2]: reduced
sAPPβ production amount in the cell culture medium [2]: reduced
st6gal production amount in the cell culture medium [3]: not decreased
amount of NICD in the cell lysate [4]: did not decrease
cleavage activity of γ-secretase against Notch (NICD) [5]: not inhibited
cleavage activity of γ-secretase against βCTF [6]: inhibits more intensely in a concentration-dependent manner the cleavage activity of γ-secretase against βCTF
